The values that follow come from PMC3679734 (BMC Research Notes, 2013).

Assay [1] concerns the target T1, human DAT (Homo sapiens, UniProt Q01959).
T1 construct: expressed in transfected cells; host or cells: HEK-293 cells (Invitrogen, Zug, Switzerland)
The experiment in a line: Inhibition of DA uptake. In kind it is cell-based. As to the method: The potencies of the drugs to inhibit the DAT were evaluated as previously described in HEK-293 cells (Invitrogen, Zug, Switzerland) stably transfected with the human DAT [8].

Assay [2] addresses T1, human DAT. Also on record: method as in PMID 22897747. The note with it: read-out: DA release potency (EC50); HEK-293 cells expressing human DAT; 95% CI 0.9 μM-[…]; as shown previously ref 25; cited from earlier work.
Assay [3] has as its target T1, human DAT. The experiment in a line: Inhibition of methamphetamine-induced DA release. The class given is cell-based. Conditions: HEK-293 cells expressing human DAT preloaded with 3H-DA; release induced with 10 μM methamphetamine, 15 min; means of 3–4 independent experiments and 95% CI. As to the method: We performed DA transporter mediated release experiments as previously published with slight modification. In brief, HEK-293 cells expressing the human DAT as stated above were cultured in 48 well-plates. Cells were filled with ^3H-DA, washed, and incubated with 250 μL buffer containing the drug alone or in combinations. […] DA release was stopped after 15 min by removing the release buffer from the cells. To quantify the DA release we determined the radioactivity in the cells after another wash step. The residual radioactivity in the cells after methamphetamine alone defined 100% DA release.

As a reminder, the IC50 is the concentration that gives 50% inhibition. A word on the EC50: it is the concentration at which the effect is half-maximal.

T1 sequence (Q01959 whole entry): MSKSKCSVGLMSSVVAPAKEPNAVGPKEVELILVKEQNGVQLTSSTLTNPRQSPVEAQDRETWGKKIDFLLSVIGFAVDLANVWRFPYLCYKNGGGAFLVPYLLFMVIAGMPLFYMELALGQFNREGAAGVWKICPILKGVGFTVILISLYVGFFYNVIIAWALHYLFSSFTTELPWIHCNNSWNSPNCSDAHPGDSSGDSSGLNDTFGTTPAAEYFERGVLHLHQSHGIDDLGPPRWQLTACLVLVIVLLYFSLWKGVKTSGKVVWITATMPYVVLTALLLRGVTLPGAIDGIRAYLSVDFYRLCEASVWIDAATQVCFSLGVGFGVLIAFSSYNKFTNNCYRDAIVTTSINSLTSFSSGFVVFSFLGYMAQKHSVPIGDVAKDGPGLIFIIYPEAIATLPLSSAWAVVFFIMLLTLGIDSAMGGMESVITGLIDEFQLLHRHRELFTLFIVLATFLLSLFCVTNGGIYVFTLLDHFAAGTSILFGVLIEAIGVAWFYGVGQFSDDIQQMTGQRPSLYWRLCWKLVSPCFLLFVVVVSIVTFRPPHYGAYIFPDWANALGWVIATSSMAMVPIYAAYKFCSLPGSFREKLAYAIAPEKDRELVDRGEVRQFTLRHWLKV

On human DAT [1], `CN[C@@H](C)Cc1ccccc1` [Methamphetamine, d-methamphetamine] came in with an IC50 of 1050 nM. Moreover, the EC50 at human DAT [2] is 1560 nM.
Regarding `CCCC(C(=O)c1ccc2c(c1)OCO2)N1CCCC1` (stereo not shown) [MDPV, 3,4-methylenedioxypyrovalerone], the IC50 at human DAT [1] (HEK-293 cells stably transfected with the human DAT, means of 3–4 independent experiments and 95% CI, read-out: DA uptake IC50 (95% CI)) was found to be 31 nM; on human DAT [3], 280 nM.
